In US9938290B2, “Tricyclic heterocyclic compounds as phosphoinositide 3-kinase inhibitors” (Karus Therapeutics Limited, priority 2009, dated 2018):

Tests used:
[1] = tested on: Rheumatoid Arthritis Synovial Fibroblast (RASF); test: In vitro inhibition of rheumatoid arthritis synovial fibroblast (RASF) proliferation; type: cell-based
[2] = tested on: PC3 (Prostate Tumour); test: In vitro inhibition of tumour cell proliferation, PC3; type: cell-based
[3] = tested on: MCF7 (Breast Tumour); test: In vitro inhibition of tumour cell proliferation, MCF7; type: cell-based
[4] = tested on: A549 (Lung Tumour); test: In vitro inhibition of tumour cell proliferation, A549; type: cell-based
[5] = tested on: TNFα production in hPBMCs; test: Inhibition of TNFα production from LPS-stimulated hPBMCs; type: cell-based, human; conditions: hPBMCs stimulated with LPS
Description: (§1) 2) Anti-Inflammatory Activity: Inhibition of the Production of Pro-Inflammatory Cytokines from Stimulated Human Peripheral Blood Mononuclear Cells (hPBMCs)
(§2) Compounds were tested at a concentration of 1 uM for cytokine release inhibition in hPBMCs stimulated with LPS (TNFα), PHA (IFNγ) and anti-CD3 (IL-17A, IL-17F, IL-21, IL-23): […]

[6] = tested on: IFNγ production in hPBMCs; test: Inhibition of IFNγ production from PHA-stimulated hPBMCs; type: cell-based, human; conditions: hPBMCs stimulated with PHA
Description: as §1, §2

[7] = tested on: IL-17A production in hPBMCs; test: Inhibition of IL-17A production from anti-CD3-stimulated hPBMCs; type: cell-based, human; conditions: hPBMCs stimulated with anti-CD3
Description: as §1, §2

[8] = tested on: IL-17F production in hPBMCs; test: Inhibition of IL-17F production from anti-CD3-stimulated hPBMCs; type: cell-based, human; conditions: hPBMCs stimulated with anti-CD3
Description: as §1, §2

[9] = tested on: IL-21 production in hPBMCs; test: Inhibition of IL-21 production from anti-CD3-stimulated hPBMCs; type: cell-based, human; conditions: hPBMCs stimulated with anti-CD3
Description: as §1, §2

[10] = tested on: IL-23 production in hPBMCs; test: Inhibition of IL-23 production from anti-CD3-stimulated hPBMCs; type: cell-based, human; conditions: hPBMCs stimulated with anti-CD3
Description: as §1, §2

| IC50 [2] [nM] | IC50 [3] [nM] | IC50 [4] [nM] | Compound | IC50 [1] [nM] | % Inhibition of Proinflammatory Cytokine Production at 1 uM, TNFα [5] [%] | % Inhibition of Proinflammatory Cytokine Production at 1 uM, IFNγ [6] [%] | % Inhibition of Proinflammatory Cytokine Production at 1 uM, IL-17A [7] [%] | % Inhibition of Proinflammatory Cytokine Production at 1 uM, IL-17F [8] [%] | % Inhibition of Proinflammatory Cytokine Production at 1 uM, IL-21 [9] [%] | % Inhibition of Proinflammatory Cytokine Production at 1 uM, IL-23 [10] [%] |
| --- | --- | --- | --- | --- | --- | --- | --- | --- | --- | --- |
| 3340 | 352 | 682 | c1cc(-c2nc(N3CCOCC3)c3oc4ncc(CN5CCOCC5)cc4c3n2)c2cc[nH]c2c1 [K, 2-(1H-Indol-4-yl)-4-morpholin-4-yl-8-morpholin-4-ylmethyl-pyrido[3′,2′:4,5]furo[3,2-d]pyrimidine] | 3020 |  |  |  |  |  |  |
|  |  |  | (E)-1-(4-Methyl-piperazin-1-yl)-3-[4-morpholin-4-yl-2-(1H-pyrrolo[2,3-b]pyridin-4-yl)-pyrido[3′,2′:4,5]furo[3,2-d]pyrimidin-8-yl]-propenone |  | 74 | 67 | 77 | 74 | 82 | 93 |
